The subject of series [1] is B16-F10. The experiment in a line: Antiproliferative activity against mouse B16-F10 cells incubated for 48 hrs by MTT assay. It counts as functional, cell-based. The settings on record: B16-F10, 48 h. A general note: Formazan colour is commonly taken as a measure of viable cells.
For the next series, the system named is HepG2. Nature of the series: Antiproliferative activity against human HepG2 cells incubated for 48 hrs by MTT assay. The class given is functional, cell-based. The settings on record: HepG2, 48 h.
The test system of a further series is HCT-116. The experiment in a line: Antiproliferative activity against human HCT-116 cells incubated for 48 hrs by MTT assay. The class given is functional, cell-based. The settings on record: HCT-116, 48 h.
The next series has as its system HeLa. The experiment in a line: cells. The settings on record: Homo sapiens, 48 h.
Series [2] has as its system B16-F10. Nature of the series: Induction of apoptosis in mouse B16-F10 cells assessed as early apoptotic cells at 20 nM incubated for 48 hrs by annexinV-FITC/PI staining based flow cytometry (reference value: 4.25 %). The class given is functional. (A flow cytometer gives signals particle by particle.)
Series [3] has as its system B16-F10. Nature of the series: Induction of cell cycle arrest in mouse B16-F10 cells assessed as accumulation at S phase at 20 nM incubated for 24 hrs by PI staining based flow cytometry (reference value: 21.79 %). It counts as functional.
The subject of series [4] is B16-F10. Nature of the series: Induction of apoptosis in mouse B16-F10 cells assessed as late apoptotic cells at 20 nM incubated for 48 hrs by annexinV-FITC/PI staining based flow cytometry (reference value: 2.06 %). It counts as functional.
The subject of series [5] is B16-F10. Nature of the series: Induction of cell cycle arrest in mouse B16-F10 cells assessed as accumulation at G1 phase at 20 nM incubated for 24 hrs by PI staining based flow cytometry (reference value: 52.77 %). The class given is functional.
Series [6] deals with B16-F10. The experiment in a line: Induction of apoptosis in mouse B16-F10 cells assessed as necrotic cells at 20 nM incubated for 48 hrs by annexinV-FITC/PI staining based flow cytometry (reference value: 0.064 %). The class given is functional.
Series [7] has as its system B16-F10. Nature of the series: Induction of cell cycle arrest in mouse B16-F10 cells assessed as accumulation at G2 phase at 20 nM incubated for 24 hrs by PI staining based flow cytometry (reference value: 23.04 %). It counts as functional.
Series [8] has as its system B16-F10. Nature of the series: Induction of apoptosis in mouse B16-F10 cells assessed as viable cells at 20 nM incubated for 48 hrs by annexinV-FITC/PI staining based flow cytometry (reference value: 93.6 %). The note with it: read-out: Activity. It counts as functional.
Series [9] deals with B16-F10. The experiment in a line: Immunomodulatory activity in mouse B16-F10 cells allografted in C57 mouse assessed as increase in CD3-positive CD8-positive cells at 10 mg/kg, ip administered consecutively for 14 days (reference value: 6.66 %). The class given is functional. The note with it: time 14 day.
Series [10] in a line: Toxicity in C57 mouse allografted with mouse B16-F10 cells assessed as body weight loss at 10 mg/kg, ip administered consecutively for 14 days. It counts as organism-based. The settings on record: in vivo, 336 h, time 14 day.
The test system of series [11] is B16-F10. Nature of the series: Antitumor activity against mouse B16-F10 cells allografted in C57 mouse assessed as tumor growth inhibition at 10 mg/kg, ip administered consecutively for 14 days. It counts as functional. The note with it: B16-F10, 336 h, time 14 day, read-out: TGI.
In series [12] the test system is B16-F10. Nature of the series: Immunomodulatory activity in mouse B16-F10 cells allografted in C57 mouse assessed as decrease in PD-L1 level at 10 mg/kg, ip administered consecutively for 14 days relative to control. It counts as functional. Also on record: scale not given: the % may be the effect or the level left. The settings on record: time 14 day.
The next series deals with Tubulin. The experiment in a line: Inhibition of tubulin polymerization (unknown origin). It counts as protein-complex assay, Homo sapiens.

Structures are written as SMILES. Bounds are passed on as bounds.

The results in this text go back to ChEMBL document CHEMBL5325396, “Discovery of Novel Acridane-Based Tubulin Polymerization Inhibitors with Anticancer and Potential Immunomodulatory Effects” (J Med Chem, 2023).

Description for HeLa: Antiproliferative activity against human HeLa cells incubated for 48 hrs by MTT assay

As to `COc1cc(C(=O)N2c3ccccc3Cc3ccc(F)cc32)cc(OC)c1OC`, the IC50 in the series on B16-F10 [1] was 6.91 µM; with HepG2 it was above 10 µM; in the series with HCT-116, above 10 µM; in the series with HeLa, above 10 µM.

As for `COc1cc(C(=O)N2c3ccccc3Cc3cc(F)ccc32)cc(OC)c1OC`, the IC50 with B16-F10 [1] is 0.144 µM; with HepG2, 0.035 µM; in the series with HCT-116 it was 0.256 µM; with HeLa, 0.098 µM.

As to `COC(=O)c1ccc2c(c1)N(C(=O)c1cc(OC)c(OC)c(OC)c1)c1cc(F)ccc1C2`, the IC50 was 1.26 µM with B16-F10 [1], 0.63 µM in the series with HepG2, above 10 µM with HCT-116 and 1.16 µM with HeLa.

`COc1cc(C(=O)N2c3ccccc3Cc3c(C)ccc(C)c32)cc(OC)c1OC`: the IC50 in the series with B16-F10 [1] is 0.056 µM; in the series with HepG2, 0.03 µM; in the series on HCT-116, 0.062 µM; in the series on HeLa, 0.049 µM.

As for `COc1cc(C(=O)N2c3ccccc3Cc3c(C)cccc32)cc(OC)c1OC`, the IC50 in the series with B16-F10 [1] was found to be 0.091 µM; with HepG2, 0.102 µM; in the series on HCT-116, 0.172 µM; in the series on HeLa, 0.909 µM.

For `COc1cc(C(=O)N2c3ccccc3Cc3cc(Cl)ccc32)cc(OC)c1OC`, the IC50 was found to be 0.106 µM in the series with B16-F10 [1], 0.069 µM in the series on HepG2, 0.191 µM in the series with HCT-116 and 0.078 µM in the series on HeLa.

Regarding `COc1cc(C(=O)N2c3ccccc3Cc3ccc(C(F)(F)F)cc32)cc(OC)c1OC`, the IC50 in the series with B16-F10 [1] came out at 5.52 µM; with HepG2, 2.85 µM; in the series with HCT-116, 6.87 µM; in the series on HeLa, 6.87 µM.

As to `COc1cc(C(=O)N2c3ccccc3Cc3c(Cl)cccc32)cc(OC)c1OC`, the IC50 with B16-F10 [1] amounted to 0.157 µM; in the series on HepG2, 0.071 µM; in the series with HCT-116 it was 0.25 µM; with HeLa, 0.086 µM.

Regarding `COc1cc2c(c(OC)c1OC)-c1ccc(OC)c(=O)cc1[C@@H](NC(C)=O)CC2` [COLCHICINE], the 50% inhibitory concentration (IC50) worked out at 0.088 µM in the series with B16-F10 [1], 0.025 µM in the series with HepG2 and 0.126 µM in the series with HeLa. Moreover, the Activity with B16-F10 [2] turned out to be 12.4%; in the series on B16-F10 [3] it was 33.02%; in the series with B16-F10 [4], 5.68%; in the series on B16-F10 [5] it was 10.06%; in the series on B16-F10 [6], 0.466%; in the series on B16-F10 [7], 55.16%. In the series on B16-F10 [8], the viability at 0.02 µM is 81.5%.

As for `COc1cc(C(=O)N2c3cc(Cl)ccc3Cc3ccc(Cl)cc32)cc(OC)c1OC`, the IC50 in the series with B16-F10 [1] is 1.02 µM; in the series with HepG2, 0.716 µM; with HCT-116, above 10 µM; in the series with HeLa, 1.03 µM.

With `COc1cc(C(=O)N2c3ccccc3C(c3ccccc3)c3ccccc32)cc(OC)c1OC`, the IC50 with B16-F10 [1], in the series with HepG2, with HCT-116 and with HeLa was above 10 µM throughout.

Regarding `COc1cc(C(=O)N2c3cc(Br)ccc3Cc3c2ccc(C)c3C)cc(OC)c1OC`, the IC50 was 0.085 µM in the series with B16-F10 [1], 0.107 µM with HepG2, 0.129 µM with HCT-116 and 0.104 µM with HeLa.

Consider `COc1cc(C(=O)N2c3ccccc3Cc3ccc(Cl)cc32)cc(OC)c1OC`, for which the IC50 with B16-F10 [1] is 0.211 µM; in the series on HepG2, 0.058 µM; with HCT-116 it was 0.427 µM; in the series with HeLa, 0.189 µM.

`COc1cc(C(=O)N2c3ccccc3Cc3cccc(OC)c32)cc(OC)c1OC`: the IC50 in the series with B16-F10 [1] came out at 0.092 µM; in the series with HepG2 it was 0.161 µM; in the series on HCT-116 it was 0.208 µM; in the series on HeLa it was 0.117 µM.

As for `COc1cc(C(=O)N2c3cc(F)ccc3Cc3ccc(F)cc32)cc(OC)c1OC`, the IC50 is 1.98 µM in the series with B16-F10 [1], 0.661 µM in the series on HepG2, above 10 µM in the series on HCT-116 and 2.05 µM with HeLa.

`COC(=O)c1ccc2c(c1)N(C(=O)c1cc(OC)c(OC)c(OC)c1)c1ccccc1C2`: the IC50 is 7.17 µM in the series on B16-F10 [1], 3.27 µM in the series with HepG2, 9.37 µM in the series with HCT-116 and 8.35 µM in the series on HeLa.

For `COc1cc(C(=O)N2c3cccc(Cl)c3Cc3c(C)ccc(C)c32)cc(OC)c1OC`, the IC50 stood at 0.845 µM in the series on B16-F10 [1], 0.184 µM in the series with HepG2, 0.429 µM in the series with HCT-116 and 0.586 µM in the series with HeLa.

Regarding `COc1cc(C(=O)N2c3ccccc3Cc3ccc4ccccc4c32)cc(OC)c1OC`, the IC50 with B16-F10 [1], with HepG2, in the series with HCT-116 and in the series on HeLa was above 10 µM each time.

In the case of `Cc1c(COc2cc(OCc3cccc(C#N)c3)c(CNC(C)(C)C(=O)O)cc2Cl)cccc1-c1ccccc1`, the Activity with B16-F10 [9] is on record as 14.6%; in series [10], “Non-Toxic”; in the series with B16-F10 [12], around 45%. In addition, the inhibition in vivo at 10 mg/kg in the series on B16-F10 [11] stood at 19%.

Turning to `COc1cc(C(=O)N2c3ccccc3Cc3ccccc32)cc(OC)c1OC`, the IC50 was 0.146 µM with B16-F10 [1]; 1.6 µM on Tubulin; 0.16 µM in the series on HepG2; 0.257 µM with HCT-116; 1.2 µM in the series on HeLa.

Take `COc1cc(C(=O)N2c3ccccc3Cc3cc(C)ccc32)cc(OC)c1OC`: the IC50 with B16-F10 [1] was 0.084 µM; in the series on HepG2, 0.083 µM; in the series with HCT-116, 0.128 µM; with HeLa, 0.131 µM.

For `COc1cc(C(=O)N2c3cc(C)ccc3Cc3ccc(F)cc32)cc(OC)c1OC`, the IC50 in the series with B16-F10 [1] was 0.274 µM; with HepG2, 0.03 µM; with HCT-116 it was 0.24 µM; with HeLa, 0.188 µM.

Consider `COc1cc(C(=O)N2c3cc(F)ccc3Cc3cc4ccccc4cc32)cc(OC)c1OC`, for which the IC50 with B16-F10 [1] was 0.752 µM; with HepG2 it was 0.216 µM; with HCT-116 it was above 10 µM; with HeLa, 0.676 µM.

Regarding `COc1ccc2c(c1)Cc1ccccc1N2C(=O)c1cc(OC)c(OC)c(OC)c1`, the IC50 with B16-F10 [1] turned out to be 0.08 µM; with HepG2, 0.091 µM; in the series with HCT-116, 0.103 µM; in the series with HeLa it was 0.105 µM.

In general, IC50 refers to the concentration needed to halve the response being measured.
